Where two headings read alike, the source gives them in different places.
Legend:
[1] = biological target: T1, glucagon receptor (GCGR) overexpressed CHO-K1 cells or human primary hepatocytes (Homo sapiens, UniProt P47871); assay: Glucagon cAMP inhibition assay (Cisbio cAMP Dynamic 2 HTRF); assay type: cell-based
T1 construct: expressed in transfected cells; host or cells: GCGR overexpressed CHO-K1 cells or human primary hepatocytes (endogenous receptor)
Method in brief: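 HTRF read-out of glucagon-induced cAMP, with IC50 from non-linear regression. Cells (GCGR CHO-K1 or human primary hepatocytes) in HBSS/0.1% BSA/800 nM IBMX took compound dilutions for 30 min (final DMSO 1%), then EC50-level glucagon for 30 min at room temperature, then a 60 min lysis/detection step.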

glucagon receptor (GCGR) = biological target: T2, glucagon receptor (GCGR) (Homo sapiens, UniProt P47871); assay: I125-glucagon binding assay (competition, GCGR membrane fractions)
T2 construct: expressed in transfected cells; host or cells: CHO-K1 cells overexpressing GCGR (membrane fractions)
T2 sequence (P47871 26-477): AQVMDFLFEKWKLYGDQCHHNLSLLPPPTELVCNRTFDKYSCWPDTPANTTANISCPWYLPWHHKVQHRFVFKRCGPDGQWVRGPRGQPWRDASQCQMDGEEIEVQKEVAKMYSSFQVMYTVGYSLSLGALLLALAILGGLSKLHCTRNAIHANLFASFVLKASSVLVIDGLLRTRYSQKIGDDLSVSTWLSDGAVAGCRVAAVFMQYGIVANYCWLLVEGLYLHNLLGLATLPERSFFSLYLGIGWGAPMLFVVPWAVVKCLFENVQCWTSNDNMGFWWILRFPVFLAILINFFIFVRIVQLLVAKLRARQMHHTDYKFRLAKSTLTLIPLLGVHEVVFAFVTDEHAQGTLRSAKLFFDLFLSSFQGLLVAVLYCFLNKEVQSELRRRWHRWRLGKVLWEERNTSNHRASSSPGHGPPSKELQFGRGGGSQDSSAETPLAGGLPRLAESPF
Method in brief: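 Competition of 0.0625 nM (final) I^125-glucagon for 30 min at 25° C, after 5 min compound preincubation, using 7.5 μg/well GCGR-overexpressing CHO-K1 membranes in 50 mM Tris pH 7.4, 0.5% BSA. Filtration onto PEI-coated GF/B, micro-beta counting, and non-linear regression gave IC50.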

[2] = inhibition of glucagon (EC50 concentration) induced cAMP production
[3] = competition with I125-glucagon 0.0625 nM, membrane fractions of GCGR overexpressed CHO-K1 cells

T1 sequence (P47871 26-477): as above

For `CC[C@H](C)[C@@H](COc1cc(Cl)c(-c2cc3ccccc3o2)cc1Cl)Nc1ccc(C(=O)NCCC(=O)O)cc1` [Compound 3-19, 3-(4-(((2S,3S)-1-(4-(benzofuran-2-yl)-2,5-dichlorophenoxy)-3-methylpentan-2-yl)amino)benzamido)propanoic Acid], the “IC50 cAMP” value [1, 2] was 0.13 µM and the IC50 (glucagon receptor (GCGR); [3]) was 0.064 µM.

With `CC[C@H](C)[C@@H](COc1cc(C)c(-c2ccc(OC(F)(F)F)cc2)c(C)c1)Nc1ccc(C(=O)NCCC(=O)O)cc1` [Compound 2-8, 3-(4-(((2S,3S)-1-((2,6-dimethyl-4′-(trifluoromethoxy)-[1,1′-biphenyl]-4-yl)oxy)-3-methylpentan-2-yl)amino)benzamido)propanoic Acid] the “IC50 cAMP” value [1, 2] was 0.602 µM and the IC50 (glucagon receptor (GCGR); [3]) was 0.627 µM.

`CC(C)[C@@H](COc1ccc(-c2cc3ncccc3o2)cc1)Nc1ccc(C(=O)NCCC(=O)O)cc1` [Compound 1-41, (S)-3-(4-((1-(4-(furo[3,2-b]pyridin-2-yl)phenoxy)-3-methylbutan-2-yl)amino)benzamido)propanoic Acid] was tested, and the “IC50 cAMP” value [1, 2] was 1.403 µM and the IC50 (glucagon receptor (GCGR); [3]) was 0.227 µM.

`C[C@@H](Cc1ccc(-c2ccc(Cl)cc2Cl)cc1)Nc1ccc(C(=O)NCCC(=O)O)cc1` [Compound 19-2, (S)-3-(4-((1-(2′,4′-dichloro-[1,1′-biphenyl]-4-yl)propan-2-yl)amino)benzamido)propanoic Acid] was tested, and the “IC50 cAMP” value [1] was 5.186 µM and the IC50 (glucagon receptor (GCGR)) was 6.32 µM.

`Cc1cc(OC[C@@H](Nc2ccc(C(=O)NCCC(=O)O)cc2)C(C)C)cc(C)c1-c1ccc(C(F)(F)F)cc1` [Compound 2-4, (S)-3-(4-((1-((2,6-dimethyl-4′-(trifluoromethyl)-[1,1′-biphenyl]-4-yl)oxy)-3-methylbutan-2-yl)amino)benzamido)propanoic Acid] was tested, and the “IC50 cAMP” value [1, 2] was 0.2458 µM and the IC50 (glucagon receptor (GCGR); [3]) was 0.091 µM.

For `CCC(C)[C@@H](COc1ccc(-c2ccc(C(F)(F)F)cc2)cc1)Nc1ccc(C(=O)NCCC(=O)O)cc1` (stereo partly drawn) [Compound 1-5, 3-(4-(((2S)-3-methyl-1-((4′-(trifluoromethyl)-[1,1′-biphenyl]-4-yl)oxy)pentan-2-yl)amino)benzamido)propanoic Acid], the “IC50 cAMP” value [1, 2] was 0.839 µM and the IC50 (glucagon receptor (GCGR); [3]) was 0.213 µM.

With `CCCC[C@@H](COc1cnc(-c2ccc(C(F)(F)F)cc2Cl)nc1)Nc1ccc(C(=O)NCCC(=O)O)cc1` [Compound 12-5, (S)-3-(4-((1-((2-(2-chloro-4-(trifluoromethyl)phenyl)pyrimidin-5-yl)oxy)hexan-2-yl)amino)benzamido)propanoic Acid] the “IC50 cAMP” value [1, 2] was 2.357 µM and the IC50 (glucagon receptor (GCGR); [3]) was 0.451 µM.

`O=C(O)CCNC(=O)c1ccc(NC(Cc2ccccc2)C(=O)Nc2ccc(C(F)(F)F)cc2)cc1` (stereo in doubt) [Compound 24-4, (S)-3-(4-((1-oxo-3-phenyl-1-((4-(trifluoromethyl)phenyl)amino)propan-2-yl)amino)benzamido)propanoic Acid] was tested, and the “IC50 cAMP” value ([1]; uM) was greater than 10 µM and the IC50 (glucagon receptor (GCGR)) was 6.02 µM.

For `CC[C@H](C)[C@@H](COc1cc(Cl)c(-c2ccc(C(F)(F)F)cc2F)cc1Cl)Nc1ccc(C(=O)NCCC(=O)O)cc1` [Compound 3-21], the “IC50 cAMP” value [1, 2] was 0.653 µM and the IC50 (glucagon receptor (GCGR); [3]) was 0.295 µM.

With `CCC(C)[C@@H](Cc1noc(-c2ccc(C(C)(C)C)cc2)n1)Nc1ccc(C(=O)NCCC(=O)O)cc1` (stereo partly drawn) [Compound 21-2, 3-(4-(((2R)-1-(5-(4-(tert-butyl)phenyl)-1,2,4-oxadiazol-3-yl)-3-methylpentan-2-yl)amino)benzamido)propanoic Acid] the “IC50 cAMP” value [1, 2] was 1.242 µM and the IC50 (glucagon receptor (GCGR); [3]) was 0.637 µM.

`O=C(O)CCNC(=O)c1ccc(N[C@@H](Cc2ccccc2)C(=O)Nc2ccc(-c3ccc(Cl)cc3Cl)cc2)cc1` [Compound 23-14, (S)-3-(4-((1-((2′,4′-dichloro-[1,1′-biphenyl]-4-yl)amino)-1-oxo-3-phenylpropan-2-yl)amino)benzamido)propanoic Acid] was tested, and the “IC50 cAMP” value ([1]; uM) was greater than 10 µM and the IC50 (glucagon receptor (GCGR); uM) was greater than 10 µM.

`CCOC(=O)CCNC(=O)c1ccc(N[C@@H](Cc2ccccc2)C(=O)Nc2ccc(C(F)(F)F)cc2)cc1` [Compound 24-5, Ethyl (S)-3-(4-((1-oxo-3-phenyl-1-((4-(trifluoromethyl)phenyl)amino)propan-2-yl)amino)benzamido)propanoate] was tested, and the “IC50 cAMP” value [1] was 5.8 µM and the IC50 (glucagon receptor (GCGR); uM) was greater than 10 µM.

`CCOC(=O)CCNC(=O)c1ccc(N[C@H](Cc2ccc(-c3cc4ccccc4o3)cc2)C(=O)Nc2ccc(C(F)(F)F)cc2)cc1` [Compound 24-19, Ethyl (R)-3-(4-((3-(4-(benzofuran-2-yl)phenyl)-1-oxo-1-((4-(trifluoromethyl)phenyl)amino)propan-2-yl)amino)benzamido)propanoate] was tested, and the “IC50 cAMP” value [1] was 0.5384 µM and the IC50 (glucagon receptor (GCGR)) was 1.37 µM.

In the case of `CC[C@H](C)[C@@H](COc1ccc(-c2ccc(C(F)(F)F)cc2Cl)cn1)Nc1ccc(C(=O)NCCC(=O)O)cc1` [Compound 15-13, 3-(4-(((2S,3S)-1-((5-(2-chloro-4-(trifluoromethyl)phenyl)pyridin-2-yl)oxy)-3-methylpentan-2-yl)amino)benzamido)propanoic Acid], the “IC50 cAMP” value [1] is reported as 0.123 µM and the IC50 (glucagon receptor (GCGR)) is reported as 0.098 µM.

With `CCCC[C@@H](COc1ccc(-c2cc3ccccc3o2)c(Cl)c1)Nc1ccc(C(=O)NCc2nnn[nH]2)cc1` [Compound 3-11, (S)—N-((1H-tetrazol-5-yl)methyl)-4-((1-(4-(benzofuran-2-yl)-3-chlorophenoxy)hexan-2-yl)amino)benzamide] the “IC50 cAMP” value [1, 2] was 0.6728 µM and the IC50 (glucagon receptor (GCGR); [3]) was 0.149 µM.

In the case of `CCCC[C@@H](COc1ccc(-c2cc3ccccc3o2)cn1)Nc1ccc(C(=O)NCCC(=O)O)cc1` [Compound 15-22, (S)-3-(4-((1-((5-(benzofuran-2-yl)pyridin-2-yl)oxy)hexan-2-yl)amino)benzamido)propanoic Acid], the “IC50 cAMP” value [1] is reported as 0.168 µM and the IC50 (glucagon receptor (GCGR)) is reported as 0.089 µM.

With `CC[C@H](C)[C@@H](COc1ccc(-c2ccc(F)cc2F)nn1)Nc1ccc(C(=O)NCCC(=O)O)cc1` [Compound 17-6, 3-(4-(((2S,3S)-1-((6-(2,4-difluorophenyl)pyridazin-3-yl)oxy)-3-methylpentan-2-yl)amino)benzamido)propanoic Acid] the “IC50 cAMP” value [1, 2] was 10.157 µM and the IC50 (glucagon receptor (GCGR); [3]) was 0.445 µM.

For `CC(C)C[C@@H](COc1cc(F)c(-c2cc3ccccc3o2)c(F)c1)Nc1ccc(C(=O)NCCC(=O)O)cc1` [Compound 7-10, (S)-3-(4-((1-(4-(benzofuran-2-yl)-3,5-difluorophenoxy)-4-methylpentan-2-yl)amino)benzamido)propanoic Acid], the “IC50 cAMP” value [1, 2] was 0.7309 µM and the IC50 (glucagon receptor (GCGR); [3]) was 0.145 µM.

`CC(C)[C@@H](COc1ccc(-c2cc3ccccc3o2)c(Cl)c1)Nc1ccc(C(=O)NCCC(=O)O)cc1` [Compound 3-7, (S)-3-(4-((1-(4-(benzofuran-2-yl)-3-chlorophenoxy)-3-methylbutan-2-yl)amino)benzamido)propanoic Acid] was tested, and the “IC50 cAMP” value [1, 2] was 0.3635 µM and the IC50 (glucagon receptor (GCGR); [3]) was 0.103 µM.

In the case of `CC(C)[C@@H](COc1cnc(-c2ccc(Cl)cc2Cl)nc1)Nc1ccc(C(=O)NCCC(=O)O)cc1` [Compound 12-6, (S)-3-(4-((1-((2-(2,4-dichlorophenyl)pyrimidin-5-yl)oxy)-3-methylbutan-2-yl)amino)benzamido)propanoic Acid], the “IC50 cAMP” value [1, 2] is reported as greater than 30 µM and the IC50 (glucagon receptor (GCGR); [3]) is reported as 1.67 µM.

`CC(C)(C)c1ccc(-c2ccc(OC[C@@H](Nc3ccc(C(=O)NC[C@@H](O)C(=O)O)cc3)c3ccccc3)nc2)cc1` [Compound 15-6, (R)-3-(4-(((S)-2-((5-(4-(tert-butyl)phenyl)pyridin-2-yl)oxy)-1-phenylethyl)amino)benzamido)-2-hydroxypropanoic Acid] was tested, and the “IC50 cAMP” value [1] was greater than 30 µM and the IC50 (glucagon receptor (GCGR)) was 0.172 µM.

`CC(C)C[C@H](Nc1ccc(C(=O)NCCC(=O)O)cc1)C(=O)Nc1ccc(-c2cc3ccccc3s2)cc1` [Compound 23-12, (S)-3-(4-((1-((4-(benzo[b]thiophen-2-yl)phenyl)amino)-4-methyl-1-oxopentan-2-yl)amino)benzamido)propanoic Acid] was tested, and the “IC50 cAMP” value [1] was 4.1 µM and the IC50 (glucagon receptor (GCGR)) was 0.375 µM.

In the case of `CC(C)[C@@H](COc1ccc(-c2ccc(C(F)(F)F)cc2Cl)c(F)c1)Nc1ccc(C(=O)NCCC(=O)O)cc1` [Compound 8-5, (S)-3-(4-((1-((2′-chloro-2-fluoro-4′-(trifluoromethyl)-[1,1′-biphenyl]-4-yl)oxy)-3-methylbutan-2-yl)amino)benzamido)propanoic Acid], the “IC50 cAMP” value [1, 2] is reported as 0.085 µM and the IC50 (glucagon receptor (GCGR); [3]) is reported as 0.075 µM.

With `CCCOC[C@H](Cc1ccc(-c2ccc(Cl)cc2Cl)cc1)Nc1ccc(C(=O)NCCC(=O)O)cc1` [Compound 19-15, (S)-3-(4-((1-(2′,4′-dichloro-[1,1′-biphenyl]-4-yl)-3-propoxypropan-2-yl)amino)benzamido)propanoic Acid] the “IC50 cAMP” value [1] was 2.029 µM and the IC50 (glucagon receptor (GCGR)) was 2.67 µM.

`CC(C)(C)[C@@H](COc1ccc(-c2ccc(C(F)(F)F)cc2F)c(F)c1)Nc1ccc(C(=O)NCCC(=O)O)cc1` [Compound 8-23, (S)-3-(4-((1-((2,2′-difluoro-4′-(trifluoromethyl)-[1,1′-biphenyl]-4-yl)oxy)-3,3-dimethylbutan-2-yl)amino)benzamido)propanoic Acid] was tested, and the “IC50 cAMP” value [1, 2] was 0.08946 µM and the IC50 (glucagon receptor (GCGR); [3]) was 0.081 µM.

In the case of `CC(C)(C)[C@@H](COc1ccc(-c2cc3ccccc3o2)cc1)Nc1ccc(C(=O)NCCC(=O)O)cc1` [Compound 1-40, (S)-3-(4-((1-(4-(benzofuran-2-yl)phenoxy)-3,3-dimethylbutan-2-yl)amino)benzamido)propanoic Acid], the “IC50 cAMP” value [1, 2] is reported as 0.2353 µM and the IC50 (glucagon receptor (GCGR); [3]) is reported as 0.195 µM.
